Assay results reported in publication PMC5078989, “Targeted inhibition of the COP9 signalosome for treatment of cancer” (Nature Communications, 2016).

System: panel of cancer cell lines
Experiment: Cell viability (CellTiter-Glo) dose-response across cancer cell line panel;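 note: after 72 h compound incubation with CellTiter-Glo ATP readout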
Format: cell-based, human
Details: Homo sapiens
Excerpt: Next, we explored the effect of CSN5 inhibition on the viability of cancer cells. To obtain a comprehensive picture, we generated dose–response curves with a CSN5 inhibitor across more than 500 cancer cell lines in a previously described standardized setting[47] (Supplementary Data 1).
A standardized CellTiter-Glo Assay (Promega #G7570) based on the quantification of ATP was applied according to the manufacturer's protocol to measure the amount of viable cells in culture. In brief, cells were seeded into 384-well plates at optimal density for each cell line. After 4 h, compounds were added at different concentrations in growth medium and incubated for another 72 h in a humidifying chamber at 37 °C and 5% CO2. […] EC50 values were calculated from the plot of percentage of inhibition versus inhibitor concentration using the nonlinear regression analysis software Origin 7.5SR6 (OriginLab Corp.).

EC50 (MSTO-211H, MSTO-211H cells): 10.8 µM
EC50 (MV4-11, MV-4-11 cells): 6.71 µM
EC50 (Malme-3M, Malme-3M cells): 13.6 µM
EC50 (Mono-Mac-1, MONO-MAC-1 cells): 3.69 µM
EC50 (NALM-6, NALM-6 cells): 6.94 µM
EC50 (NB1, NB-1 cells): 11.7 µM
EC50 (NB-4, NB-4 cells): 8.86 µM
EC50 (NCI-H23, NCI-H23 cells): 23.9 µM
EC50 (NCI-H28, NCI-H28 cells): 15 µM
EC50 (NCI-H146, NCI-H146 cells): 11.6 µM
EC50 (NCI-H211, NCI-H211 cells): 20.6 µM
EC50 (NCI-H322, NCI-H322 cells): 12.9 µM
EC50 (NCI-H441, NCI-H441 cells): 24.7 µM
EC50 (NCI-H460, NCI-H460 cells): 10.1 µM
EC50 (NCI-H661, NCI-H661 cells): 20.1 µM
EC50 (NCI-H747, NCI-H747 cells): 10.7 µM
EC50 (NCI-H810, NCI-H810 cells): > 30 µM
EC50 (NCI-H838, NCI-H838 cells): > 30 µM
EC50 (NCI-H841, NCI-H841 cells): 11 µM
EC50 (NCI-H1048, NCI-H1048 cells): 15.8 µM
EC50 (NCI-H1155, NCI-H1155 cells): 8.05 µM
EC50 (NCI-H1299, NCI-H1299 cells): 8.56 µM
EC50 (NCI-H1339, NCI-H1339 cells): 11.2 µM
EC50 (NCI-H1341 cells): 10.2 µM
EC50 (NCI-H1355, NCI-H1355 cells): 12 µM
EC50 (NCI-H1373, NCI-H1373 cells): 13 µM
EC50 (NCI-H1437, NCI-H1437 cells): 11.7 µM
EC50 (NCI-H1568, NCI-H1568 cells): 11.2 µM
EC50 (NCI-H1581, NCI-H1581 cells): 7.75 µM
EC50 (NCI-H1650, NCI-H1650 cells): 12.6 µM
EC50 (NCI-H1666, NCI-H1666 cells): 12.9 µM
EC50 (NCI-H1693, NCI-H1693 cells): 14.7 µM
EC50 (NCI-H1703, NCI-H1703 cells): 6.5 µM
EC50 (NCI-H1755, NCI-H1755 cells): 12.8 µM
EC50 (NCI-H1975, NCI-H1975 cells): 11.3 µM
EC50 (NCI-H2023, NCI-H2023 cells): 12.4 µM
EC50 (NCI-H2030, NCI-H2030 cells): 29.9 µM
EC50 (NCI-H2073, NCI-H2073 cells): 20.3 µM
EC50 (NCI-H2087, NCI-H2087 cells): 13 µM
EC50 (NCI-H2110, NCI-H2110 cells): 11.8 µM
EC50 (NCI-H2122, NCI-H2122 cells): 10.1 µM
EC50 (NCI-H2170, NCI-H2170 cells): 10.4 µM
EC50 (NCI-H2171, NCI-H2171 cells): 17.6 µM
EC50 (NCI-H2228, NCI-H2228 cells): > 30 µM
EC50 (NCI-H2286, NCI-H2286 cells): 10.5 µM
EC50 (NCI-H2444, NCI-H2444 cells): 11.6 µM
EC50 (NCI-H2452, NCI-H2452 cells): > 30 µM
EC50 (NCI-H3255, NCI-H3255 cells): 13.2 µM
EC50 (NO36 cells): 13.1 µM
EC50 (NOMO-1, NOMO-1 cells): 7.28 µM
EC50 (NUGC-3, NUGC-3 cells): 9.54 µM
EC50 (OCI-AML-3, OCI-AML3 cells): 7.14 µM
EC50 (OCI-AML-5, OCI-AML5 cells): 9.5 µM
EC50 (OCI-Ly3, OCI-LY3 cells): 5.42 µM
EC50 (OCI-M1, OCI-M1 cells): 7.25 µM
EC50 (ONCO-DG-1, ONCO-DG-1 cells): 7.45 µM
EC50 (OUMS-23, OUMS-23 cells): 12.2 µM
EC50 (OV56, OV56 cells): 12.7 µM
EC50 (OVCAR-4, OVCAR-4 cells): 9.93 µM
EC50 (OVISE cells): 12.1 µM
EC50 (P3HR-1, P3HR-1 cells): 7.82 µM
EC50 (P12-Ichikawa, P12-ICHIKAWA cells): 7.02 µM
EC50 (P31-FUJ, P31/FUJ cells): 13.4 µM
EC50 (PANC-1, PANC-1 cells): 12.2 µM
EC50 (PANC-03-27, Panc 03.27 cells): 21.9 µM
EC50 (PC-3, PC-3 cells): 10.7 µM
EC50 (PC-14, PC-14 cells): 12.6 µM
EC50 (PE/CA-PJ49 cells): 12.7 µM
EC50 (PF-382, PF-382 cells): 4.99 µM
EC50 (PK-1, PK-1 cells): 15.9 µM
EC50 (PK-45H cells): 9.52 µM
EC50 (PK-59, PK-59 cells): 11.5 µM
EC50 (PL-21, PL-21 cells): 6.39 µM
EC50 (PLC-PRF-5, PLC/PRF/5 cells): 19.8 µM
EC50 (PSN1, PSN1 cells): 11 µM
EC50 (PaTu 8988s, PA-TU-8988S cells): 26.6 µM
EC50 (PaTu 8988t, PA-TU-8988T cells): 10.6 µM
EC50 (Panc 02.03, Panc 02.03 cells): > 30 µM
EC50 (Panc 04.03, Panc 04.03 cells): 13.1 µM
EC50 (QGP-1, QGP-1 cells): 11.8 µM
EC50 (RCM-1, RCM-1 cells): 13.6 µM
EC50 (RD, RD cells): 9.86 µM
EC50 (RERF-LC-AI cells): 11.7 µM
EC50 (RERF-LC-MS cells): 24.1 µM
EC50 (RKN cells): 28.9 µM
EC50 (RKO, RKO cells): 17.9 µM
EC50 (RPMI 8402, RPMI-8402 cells): 7.36 µM
EC50 (RPMI-7951, RPMI-7951 cells): 11.4 µM
EC50 (RT-112, RT-112 cells): 11.2 µM
EC50 (Rh41, RH-41 cells): 4.52 µM
EC50 (SCC-25, SCC-25 cells): 11.6 µM
EC50 (SCaBER, SCaBER cells): > 30 µM
EC50 (SEM cells): 9.47 µM
EC50 (SF-268, SF-268 cells): 12.7 µM
EC50 (SH-4, SH-4 cells): 11.1 µM
EC50 (SH-10-TC, SH-10-TC cells): 10.6 µM
EC50 (SH-SY5Y, SH-SY5Y cells): 8.13 µM
EC50 (SJRH30, SJRH30 cells): 15.5 µM
EC50 (SK-CO-1, SK-CO-1 cells): 10.7 µM
EC50 (SK-ES1, SK-ES-1 cells): 13.2 µM
EC50 (SK-HEP1, SK-HEP-1 cells): > 30 µM
EC50 (SK-LU-1, SK-LU-1 cells): 8.59 µM
EC50 (SK-MEL3, SK-MEL-3 cells): 10.3 µM
EC50 (SK-MEL-2, SK-MEL-2 cells): 14.9 µM
EC50 (SK-MEL-5, SK-MEL-5 cells): 10.6 µM
EC50 (SK-MEL-28, SK-MEL-28 cells): 13.2 µM
EC50 (SK-MEL-30, SK-MEL-30 cells): 12.1 µM
EC50 (SK-MEL-31 cells): 23.9 µM
EC50 (SK-MES-1, SK-MES-1 cells): 28 µM
EC50 (SK-N-SH, SK-N-SH cells): 26.6 µM
EC50 (SKM-1, SKM-1 cells): 13.6 µM
EC50 (SKNBE2, SK-N-BE(2) cells): 11.4 µM
EC50 (SNB-19, SNB-19 cells): 25 µM
EC50 (SNG-M cells): 20.9 µM
EC50 (SNU668, SNU-668 cells): 11.5 µM
EC50 (SNU878, SNU-878 cells): 7.43 µM
EC50 (SNU-8 cells): > 30 µM
EC50 (SNU-16, SNU-16 cells): 8.93 µM
EC50 (SNU-61 cells): > 30 µM
EC50 (SNU-175 cells): 17.1 µM
EC50 (SNU-213 cells): 13.4 µM
EC50 (SNU-324 cells): 12.8 µM
EC50 (SNU-349 cells): > 30 µM
EC50 (SNU-387, SNU-387 cells): 9.94 µM
EC50 (SNU-398, SNU-398 cells): 6.84 µM
EC50 (SNU-410 cells): 22.2 µM
EC50 (SNU-423, SNU-423 cells): 12.7 µM
EC50 (SNU-449, SNU-449 cells): 25.6 µM
EC50 (SNU-475, SNU-475 cells): > 30 µM
SMILES: COCc1ccccc1NCc1ccc([C@@H]2[C@H](O)CCCc3cncn32)c(-c2ccccc2Cl)c1 [CSN5i-2e, (5R,6R)-5-(2′-chloro-5-(((2-(methoxymethyl)phenyl)amino)methyl)-[1,1′-biphenyl]-2-yl)-6,7,8,9-tetrahydro-5H-imidazo[1,5-a]azepin-6-ol]
